Test results published in the supplement of paper PMC10307832.

What was measured:
Experiment in all cases: relative viability (nuclei count vs DMSO), 5 days (fraction); higher = more cells survive
GSK126 + Phenformin = compound: CC[C@H](C)N1C=C(C2=C(C=C(C=C21)C3=CN=C(C=C3)N4CCNCC4)C(=O)NCC5=C(C=C(NC5=O)C)C)C [GSK126] + N=C(N)NC(=N)NCCc1ccccc1 [Phenformin] (partner 250 µM)
Outline: (§1)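 A single step with final 0.05% Triton X-100, 1% formaldehyde and 1 ug/ml Hoechst fixed the cells and stained nuclei 5 days after treatment. Lung cancer cell lines in 1536-well plates had been treated by pin tool the day after seeding with one drug alone or a fixed anchor-drug dose plus five library-drug doses (not always all listed) in √10 steps, and nuclei were counted on 4× images. Relative viability is the ratio of nuclei in treated wells to nuclei in vehicle wells, taken as the median of duplicate plates.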

MLN4924 + Dasatinib = compound: NS(=O)(=O)OC[C@@H]1C[C@@H](n2ccc3c(N[C@H]4CCc5ccccc54)ncnc32)C[C@@H]1O [MLN4924] + Cc1nc(Nc2ncc(C(=O)Nc3c(C)cccc3Cl)s2)cc(N2CCN(CCO)CC2)n1 [Dasatinib] (partner 0.075 µM)
Outline: as §1

MLN4924 + Palbociclib = compound: NS(=O)(=O)OC[C@@H]1C[C@@H](n2ccc3c(N[C@H]4CCc5ccccc54)ncnc32)C[C@@H]1O [MLN4924] + CC(=O)c1c(C)c2cnc(Nc3ccc(N4CCNCC4)cn3)nc2n(C2CCCC2)c1=O [Palbociclib] (partner 0.5 µM)
Outline: as §1

Carboplatin + Trametinib = compound: C1CC(C1)(C(=O)O)C(=O)O.[NH2-].[NH2-].[Pt+2] [Carboplatin] + CC(=O)Nc1cccc(-n2c(=O)n(C3CC3)c(=O)c3c(Nc4ccc(I)cc4F)n(C)c(=O)c(C)c32)c1 [Trametinib] (partner 0.02 µM)
Outline: as §1

UMC-11
relative viability (GSK126 + Phenformin; first compound 0.08 µM): 0.35
relative viability (GSK126 + Phenformin; first compound 0.253 µM): 0.344
relative viability (GSK126 + Phenformin; first compound 0.8 µM): 0.312
relative viability (GSK126 + Phenformin; first compound 2.53 µM): 0.32
relative viability (GSK126 + Phenformin; first compound 8 µM): 0.3
relative viability (MLN4924 + Dasatinib; first compound 0.04 µM): 0.505
relative viability (MLN4924 + Dasatinib; first compound 0.1265 µM): 0.349
relative viability (MLN4924 + Dasatinib; first compound 0.4 µM): 0.251
relative viability (MLN4924 + Dasatinib; first compound 1.265 µM): 0.151
relative viability (MLN4924 + Dasatinib; first compound 4 µM): 0.177
relative viability (MLN4924 + Palbociclib; first compound 0.04 µM): 0.335
relative viability (MLN4924 + Palbociclib; first compound 0.1265 µM): 0.336
relative viability (MLN4924 + Palbociclib; first compound 0.4 µM): 0.321
relative viability (MLN4924 + Palbociclib; first compound 1.265 µM): 0.245
relative viability (MLN4924 + Palbociclib; first compound 4 µM): 0.249
relative viability (Carboplatin + Trametinib; first compound 0.08 µM): 0.632
relative viability (Carboplatin + Trametinib; first compound 0.253 µM): 0.706
relative viability (Carboplatin + Trametinib; first compound 0.8 µM): 0.738
relative viability (Carboplatin + Trametinib; first compound 2.53 µM): 0.929
relative viability (Carboplatin + Trametinib; first compound 8 µM): 0.532
